Assay results reported in patent publication US8921362B2, “6,7-dialkoxy quinazoline derivatives and methods of treating drug resistant and other tumors” (Natco Pharma Limited, priority 2008, dated 2014).

How the values were obtained:
Assay in all cases: KinomeScan
Format in all cases: binding
Settings in all cases: read-out: % Ctrl @ 10000 nM
CDC2L1 = biological target: T1, CDC2L1 (Homo sapiens, UniProt P21127)
T1 construct: host or cells: T7 phage in E. coli host derived from BL21
Procedure, shortened: (§1)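 Steps: grow kinase-tagged T7 phage in BL21-derived E. coli (MOI ~0.1, 32° C., to lysis); clear lysate; mix with blocked ligand beads and compound; elute; titer by qPCR.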

MELK = biological target: T2, MELK (Homo sapiens, UniProt Q14680)
T2 construct: host or cells: E. coli host derived from the BL21 strain, infected with T7 phage
Procedure, shortened: as §1

CDK3 = biological target: T3, CDK3 (Homo sapiens, UniProt Q00526)
T3 construct: host or cells: T7 phage in E. coli host derived from BL21
Procedure, shortened: as §1

CSNK1E = biological target: T4, CSNK1E (Homo sapiens, UniProt P49674)
T4 construct: host or cells: T7 phage in E. coli host derived from BL21
Procedure, shortened: as §1

NLK = biological target: T5, NLK (Homo sapiens, UniProt Q9UBE8)
T5 construct: host or cells: E. coli host derived from BL21, infected with T7 phage
Procedure, shortened: as §1

EPHA4 = biological target: T6, EPHA4 (Homo sapiens, UniProt P54764)
T6 construct: purchased Ambit Biosciences Corp; host or cells: T7 phage in E. coli host derived from BL21
Procedure, shortened: as §1

PAK3 = biological target: T7, PAK3 (Homo sapiens, UniProt O75914)
T7 construct: host or cells: E. coli host derived from BL21, infected with T7 phage
Procedure, shortened: as §1

PRKCE = biological target: T8, PRKCE (Homo sapiens, UniProt Q02156)
T8 construct: host or cells: T7 phage in E. coli host derived from BL21
Procedure, shortened: as §1

FGFR3 = biological target: T9, FGFR3 (Homo sapiens, UniProt P22607)
T9 construct: host or cells: T7 phage in E. coli host derived from BL21
Procedure, shortened: as §1

BMPR2 = biological target: T10, BMPR2 (Homo sapiens, UniProt Q13873)
T10 construct: host or cells: E. coli host derived from BL21
Procedure, shortened: as §1

LATS2 = biological target: T11, LATS2 (Homo sapiens, UniProt Q9NRM7)
T11 construct: host or cells: T7 phage grown in E. coli host derived from BL21
Procedure, shortened: as §1

GSK3B = biological target: T12, GSK3B (Homo sapiens, UniProt P49841)
T12 construct: host or cells: T7 phage in E. coli host derived from BL21
Procedure, shortened: as §1

ERK2 = biological target: T13, ERK2 (Homo sapiens, UniProt P28482)
T13 construct: purchased Ambit Biosciences Corp; host or cells: T7 phage in E. coli host derived from BL21
Procedure, shortened: as §1

CLK1 = biological target: T14, CLK1 (Homo sapiens, UniProt P49759)
T14 construct: host or cells: T7 phage in E. coli host derived from BL21
Procedure, shortened: as §1

PRKG1 = biological target: T15, PRKG1 (Homo sapiens, UniProt Q13976)
T15 construct: host or cells: T7 phage in E. coli host derived from BL21
Procedure, shortened: as §1

ACVRL1 = biological target: T16, ACVRL1 (Homo sapiens, UniProt P37023)
T16 construct: host or cells: E. coli (BL21-derived), T7 phage lysate
Procedure, shortened: as §1

INSRR = biological target: T17, INSRR (Homo sapiens, UniProt P14616)
T17 construct: host or cells: T7 phage grown in E. coli host derived from BL21
Procedure, shortened: as §1

TXK = biological target: T18, TXK (Homo sapiens, UniProt P42681)
T18 construct: host or cells: E. coli host derived from BL21, T7 phage
Procedure, shortened: as §1

EPHA1 = biological target: T19, EPHA1 (Homo sapiens, UniProt P21709)
T19 construct: purchased Ambit Biosciences Corp; host or cells: T7 phage in E. coli host derived from BL21
Procedure, shortened: as §1

BLK = biological target: T20, BLK (Homo sapiens, UniProt P51451)
T20 construct: host or cells: E. coli host derived from BL21
Procedure, shortened: as §1

STK36 = biological target: T21, STK36 (Homo sapiens, UniProt Q9NRP7)
T21 construct: host or cells: T7 phage grown in E. coli (BL21-derived)
Procedure, shortened: as §1

PLK3 = biological target: T22, PLK3 (Homo sapiens, UniProt Q9H4B4)
T22 construct: host or cells: T7 phage in E. coli host derived from BL21
Procedure, shortened: as §1

AMPK-alpha2 = biological target: T23, AMPK-alpha2 (Homo sapiens, UniProt P54646)
T23 construct: host or cells: E. coli (BL21-derived), T7 phage lysate
Procedure, shortened: as §1

MAP4K2 = biological target: T24, MAP4K2 (Homo sapiens, UniProt Q12851)
T24 construct: host or cells: E. coli host derived from the BL21 strain, infected with T7 phage
Procedure, shortened: as §1

MLCK = biological target: T25, MLCK (Homo sapiens, UniProt Q32MK0)
T25 construct: host or cells: T7 phage grown in E. coli host derived from BL21
Procedure, shortened: as §1

TRKB = biological target: T26, TRKB (Homo sapiens, UniProt Q16620)
T26 construct: host or cells: E. coli host derived from BL21, T7 phage
Procedure, shortened: as §1

ABL1(F317L) = biological target: T27, ABL1(F317L) (Homo sapiens, UniProt P00519, F317L)
T27 construct: host or cells: E. coli (BL21-derived), T7 phage lysate
Procedure, shortened: as §1

MRCKA = biological target: T28, MRCKA (Homo sapiens, UniProt Q5VT25)
T28 construct: host or cells: T7 phage grown in E. coli host derived from BL21
Procedure, shortened: as §1

EPHA6 = biological target: T29, EPHA6 (Homo sapiens, UniProt Q9UF33)
T29 construct: purchased Ambit Biosciences Corp; host or cells: T7 phage in E. coli host derived from BL21
Procedure, shortened: as §1

DLK = biological target: T30, DLK (Homo sapiens, UniProt Q12852)
T30 construct: purchased Ambit Biosciences Corp (KinomeScan); host or cells: T7 phage in E. coli host derived from BL21
Procedure, shortened: as §1

MST3 = biological target: T31, MST3 (Homo sapiens, UniProt Q9Y6E0)
T31 construct: host or cells: T7 phage grown in E. coli host derived from BL21
Procedure, shortened: as §1

AURKB = biological target: T32, AURKB (Homo sapiens, UniProt Q96GD4)
T32 construct: host or cells: E. coli host derived from BL21
Procedure, shortened: as §1

[1] = biological target: T33, TYK2(JH2domain-pseudokinase) (Homo sapiens, UniProt P29597)
T33 construct: TYK2(JH2domain-pseudokinase); host or cells: E. coli host derived from BL21, T7 phage
Procedure, shortened: as §1

DRAK2 = biological target: T34, DRAK2 (Homo sapiens, UniProt O94768)
T34 construct: purchased Ambit Biosciences Corp (KinomeScan); host or cells: T7 phage in E. coli host derived from BL21
Procedure, shortened: as §1

T25 sequence (Q32MK0 whole entry): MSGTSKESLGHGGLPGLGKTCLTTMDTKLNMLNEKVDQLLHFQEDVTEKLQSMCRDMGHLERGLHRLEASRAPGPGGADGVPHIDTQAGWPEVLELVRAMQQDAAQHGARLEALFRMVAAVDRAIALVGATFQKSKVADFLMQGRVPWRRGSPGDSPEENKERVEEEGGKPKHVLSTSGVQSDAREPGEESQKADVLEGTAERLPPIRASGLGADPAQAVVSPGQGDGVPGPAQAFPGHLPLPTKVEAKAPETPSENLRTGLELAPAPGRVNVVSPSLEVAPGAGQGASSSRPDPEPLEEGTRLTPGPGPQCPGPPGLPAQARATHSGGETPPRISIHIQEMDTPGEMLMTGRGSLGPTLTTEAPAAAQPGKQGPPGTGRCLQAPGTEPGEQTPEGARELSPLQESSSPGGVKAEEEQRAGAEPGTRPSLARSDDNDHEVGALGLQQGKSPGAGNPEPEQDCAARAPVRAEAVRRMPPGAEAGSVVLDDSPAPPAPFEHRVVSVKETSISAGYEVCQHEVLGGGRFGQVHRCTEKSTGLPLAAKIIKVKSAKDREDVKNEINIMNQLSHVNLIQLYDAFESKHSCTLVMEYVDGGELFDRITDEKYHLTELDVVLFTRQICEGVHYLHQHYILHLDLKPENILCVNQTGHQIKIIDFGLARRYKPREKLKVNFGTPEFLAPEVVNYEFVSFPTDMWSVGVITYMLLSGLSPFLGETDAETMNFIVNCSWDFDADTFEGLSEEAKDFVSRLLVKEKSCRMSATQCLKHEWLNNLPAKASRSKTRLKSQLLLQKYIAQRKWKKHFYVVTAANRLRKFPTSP
T13 sequence (P28482 whole entry): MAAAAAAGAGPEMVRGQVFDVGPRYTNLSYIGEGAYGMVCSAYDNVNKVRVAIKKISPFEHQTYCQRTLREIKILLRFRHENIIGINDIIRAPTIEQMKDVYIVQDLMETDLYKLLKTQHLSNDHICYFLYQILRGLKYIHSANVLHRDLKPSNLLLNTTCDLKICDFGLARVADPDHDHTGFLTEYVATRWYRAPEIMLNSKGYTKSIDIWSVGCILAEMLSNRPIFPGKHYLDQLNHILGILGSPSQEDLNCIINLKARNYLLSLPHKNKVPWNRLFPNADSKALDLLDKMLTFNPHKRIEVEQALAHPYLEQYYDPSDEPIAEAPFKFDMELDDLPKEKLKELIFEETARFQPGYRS
T5 sequence (Q9UBE8 whole entry): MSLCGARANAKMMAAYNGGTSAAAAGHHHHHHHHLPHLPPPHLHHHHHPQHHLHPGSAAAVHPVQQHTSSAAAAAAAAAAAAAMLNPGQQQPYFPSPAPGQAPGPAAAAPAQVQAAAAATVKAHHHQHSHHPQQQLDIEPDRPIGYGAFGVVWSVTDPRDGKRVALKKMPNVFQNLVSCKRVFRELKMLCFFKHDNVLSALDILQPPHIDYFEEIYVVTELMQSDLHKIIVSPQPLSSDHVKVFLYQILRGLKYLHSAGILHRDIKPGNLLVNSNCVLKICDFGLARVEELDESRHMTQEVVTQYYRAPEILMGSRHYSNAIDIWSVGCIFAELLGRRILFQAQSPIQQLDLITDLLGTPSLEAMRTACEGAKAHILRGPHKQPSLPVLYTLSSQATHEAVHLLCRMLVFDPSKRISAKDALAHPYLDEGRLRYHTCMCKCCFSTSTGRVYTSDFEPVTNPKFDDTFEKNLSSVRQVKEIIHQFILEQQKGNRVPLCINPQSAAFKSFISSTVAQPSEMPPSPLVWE
T7 sequence (O75914 whole entry): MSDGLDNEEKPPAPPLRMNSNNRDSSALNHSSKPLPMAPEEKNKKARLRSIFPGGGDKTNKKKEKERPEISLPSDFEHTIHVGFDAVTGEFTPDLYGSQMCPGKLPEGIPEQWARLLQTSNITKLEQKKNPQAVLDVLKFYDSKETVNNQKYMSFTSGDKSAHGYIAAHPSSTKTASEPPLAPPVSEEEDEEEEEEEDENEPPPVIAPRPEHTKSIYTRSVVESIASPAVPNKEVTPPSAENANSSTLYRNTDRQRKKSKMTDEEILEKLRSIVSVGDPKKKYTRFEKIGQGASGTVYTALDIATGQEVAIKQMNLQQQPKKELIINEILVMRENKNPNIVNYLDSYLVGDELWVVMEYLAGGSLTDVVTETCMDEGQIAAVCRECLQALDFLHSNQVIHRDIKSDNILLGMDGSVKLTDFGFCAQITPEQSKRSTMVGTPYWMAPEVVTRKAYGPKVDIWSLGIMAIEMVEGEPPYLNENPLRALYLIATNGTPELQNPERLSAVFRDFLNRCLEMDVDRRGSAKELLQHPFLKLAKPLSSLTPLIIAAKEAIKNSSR
T3 sequence (Q00526 whole entry): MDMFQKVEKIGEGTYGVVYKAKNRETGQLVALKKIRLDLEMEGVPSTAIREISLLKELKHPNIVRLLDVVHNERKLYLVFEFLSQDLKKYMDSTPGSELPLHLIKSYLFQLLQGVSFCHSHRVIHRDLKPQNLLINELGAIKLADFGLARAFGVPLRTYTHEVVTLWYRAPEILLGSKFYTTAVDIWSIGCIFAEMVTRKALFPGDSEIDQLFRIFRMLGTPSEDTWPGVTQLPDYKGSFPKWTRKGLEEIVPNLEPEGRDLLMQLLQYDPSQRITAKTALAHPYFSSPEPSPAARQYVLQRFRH
T1 sequence (P21127 whole entry): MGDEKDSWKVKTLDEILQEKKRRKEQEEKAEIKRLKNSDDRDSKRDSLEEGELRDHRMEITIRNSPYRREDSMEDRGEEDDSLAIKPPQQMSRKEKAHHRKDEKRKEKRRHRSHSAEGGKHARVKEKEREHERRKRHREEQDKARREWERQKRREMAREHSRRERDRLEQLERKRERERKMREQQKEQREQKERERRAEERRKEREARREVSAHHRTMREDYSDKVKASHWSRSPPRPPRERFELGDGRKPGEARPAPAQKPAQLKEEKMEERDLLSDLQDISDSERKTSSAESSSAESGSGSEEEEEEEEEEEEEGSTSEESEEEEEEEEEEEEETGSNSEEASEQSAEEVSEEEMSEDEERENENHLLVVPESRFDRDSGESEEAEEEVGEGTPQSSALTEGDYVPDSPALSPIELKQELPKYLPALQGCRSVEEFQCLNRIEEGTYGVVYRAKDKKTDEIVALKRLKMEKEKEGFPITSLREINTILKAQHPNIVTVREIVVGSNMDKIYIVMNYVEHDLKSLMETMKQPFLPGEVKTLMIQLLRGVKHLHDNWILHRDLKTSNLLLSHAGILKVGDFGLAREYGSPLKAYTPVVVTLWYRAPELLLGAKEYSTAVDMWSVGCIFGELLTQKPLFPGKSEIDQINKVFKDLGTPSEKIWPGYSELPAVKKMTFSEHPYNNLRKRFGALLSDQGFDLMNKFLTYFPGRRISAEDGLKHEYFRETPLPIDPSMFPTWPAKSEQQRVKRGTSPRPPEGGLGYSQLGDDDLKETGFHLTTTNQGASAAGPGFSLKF
T2 sequence (Q14680 whole entry): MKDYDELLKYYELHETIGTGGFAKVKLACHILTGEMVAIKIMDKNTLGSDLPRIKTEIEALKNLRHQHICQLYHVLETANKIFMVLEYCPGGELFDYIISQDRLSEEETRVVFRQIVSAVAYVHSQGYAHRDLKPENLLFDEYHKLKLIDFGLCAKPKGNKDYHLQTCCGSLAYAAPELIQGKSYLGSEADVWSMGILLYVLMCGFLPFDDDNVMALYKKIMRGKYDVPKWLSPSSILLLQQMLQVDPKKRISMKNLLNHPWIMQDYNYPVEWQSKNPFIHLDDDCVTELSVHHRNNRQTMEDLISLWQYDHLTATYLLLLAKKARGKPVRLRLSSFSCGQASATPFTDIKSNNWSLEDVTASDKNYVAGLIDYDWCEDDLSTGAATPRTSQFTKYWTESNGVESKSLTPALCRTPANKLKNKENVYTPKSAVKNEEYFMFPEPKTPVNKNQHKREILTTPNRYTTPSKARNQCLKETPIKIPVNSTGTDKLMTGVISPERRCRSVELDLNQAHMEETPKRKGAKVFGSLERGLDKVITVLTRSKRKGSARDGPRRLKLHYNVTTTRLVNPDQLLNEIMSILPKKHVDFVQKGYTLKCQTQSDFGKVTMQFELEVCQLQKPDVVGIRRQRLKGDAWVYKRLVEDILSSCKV
T19 sequence (P21709 26-976): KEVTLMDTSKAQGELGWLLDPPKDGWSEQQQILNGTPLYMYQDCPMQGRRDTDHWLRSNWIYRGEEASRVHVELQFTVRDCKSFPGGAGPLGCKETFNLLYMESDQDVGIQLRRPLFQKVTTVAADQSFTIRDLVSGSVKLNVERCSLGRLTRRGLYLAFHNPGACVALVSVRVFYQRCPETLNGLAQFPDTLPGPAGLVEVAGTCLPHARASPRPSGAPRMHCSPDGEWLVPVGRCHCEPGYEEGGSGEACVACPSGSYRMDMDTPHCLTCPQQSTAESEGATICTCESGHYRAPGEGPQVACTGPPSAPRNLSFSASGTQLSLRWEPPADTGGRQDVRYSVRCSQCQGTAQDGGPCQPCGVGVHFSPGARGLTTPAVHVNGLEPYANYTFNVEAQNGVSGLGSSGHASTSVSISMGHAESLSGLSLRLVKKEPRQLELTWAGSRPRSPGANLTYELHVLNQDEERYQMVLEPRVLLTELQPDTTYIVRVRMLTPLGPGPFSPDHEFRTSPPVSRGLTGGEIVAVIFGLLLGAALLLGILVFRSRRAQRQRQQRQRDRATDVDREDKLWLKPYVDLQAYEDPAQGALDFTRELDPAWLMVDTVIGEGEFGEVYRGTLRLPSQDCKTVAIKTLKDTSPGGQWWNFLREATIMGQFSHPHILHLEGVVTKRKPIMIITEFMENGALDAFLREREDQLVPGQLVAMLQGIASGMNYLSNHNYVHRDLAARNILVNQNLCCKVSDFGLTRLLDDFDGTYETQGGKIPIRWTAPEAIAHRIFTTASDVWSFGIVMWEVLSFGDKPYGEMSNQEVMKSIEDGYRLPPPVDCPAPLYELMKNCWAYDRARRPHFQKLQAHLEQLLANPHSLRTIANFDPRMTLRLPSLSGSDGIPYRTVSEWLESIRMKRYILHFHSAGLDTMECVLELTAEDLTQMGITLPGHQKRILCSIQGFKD

`C#Cc1cccc(Nc2ncnc3cc(OC)c(OCCCN4CCOCC4)cc23)c1` [NRC-2694, N-(3-ethynylphenyl)-7-methoxy-6-[3-(4-morpholinyl)propoxy]-4-quinazolinamine] showed a remaining binding at 10 µM (CDC2L1) of 42%, a remaining binding at 10 µM (MELK) of 57% and a remaining binding at 10 µM (CDK3) of 91%. The remaining binding at 10 µM (CSNK1E) was 9.6%, the remaining binding at 10 µM (NLK) was 55% and the remaining binding at 10 µM (EPHA4) was 64%. The remaining binding at 10 µM (PAK3) was 55%, the remaining binding at 10 µM (PRKCE) was 65% and the remaining binding at 10 µM (FGFR3) was 100%. The remaining binding at 10 µM (BMPR2) was 100%, the remaining binding at 10 µM (LATS2) was 93% and the remaining binding at 10 µM (GSK3B) was 100%. The remaining binding at 10 µM (ERK2) was 100%, the remaining binding at 10 µM (CLK1) was 31% and the remaining binding at 10 µM (PRKG1) was 75%. It also gave a remaining binding at 10 µM (ACVRL1) of 91%, a remaining binding at 10 µM (INSRR) of 79% and a remaining binding at 10 µM (TXK) of 39%. The remaining binding at 10 µM (EPHA1) was 55%, the remaining binding at 10 µM (BLK) was 4.4% and the remaining binding at 10 µM (STK36) was 4.6%. For the same compound, the remaining binding at 10 µM (PLK3) was 97%, the remaining binding at 10 µM (AMPK-alpha2) was 61% and the remaining binding at 10 µM (MAP4K2) was 48%. The remaining binding at 10 µM (MLCK) was 77%, the remaining binding at 10 µM (TRKB) was 73% and the remaining binding at 10 µM (ABL1(F317L)) was 33%. It also gave a remaining binding at 10 µM (MRCKA) of 81%, a remaining binding at 10 µM (EPHA6) of 25% and a remaining binding at 10 µM (DLK) of 92%. It also gave a remaining binding at 10 µM (MST3) of 42%, a remaining binding at 10 µM (AURKB) of 56% and a remaining binding at 10 µM [1] of 23%. It also gave a remaining binding at 10 µM (DRAK2) of 58%.
